Results as given in patent US7456179B2, “Methods of treating ischemic related conditions” (priority 2003, dated 2008).
“Also recorded” adds a separate entry of the source. Like-named read-outs stand apart in the source and are kept apart here.

Key:
Primary cortical neurons [1] = experiment: H2O2-induced oxidative stress (150 μM), MTS assay, comparison with known neuroprotectants; format: cell-based, rat; details: 24 h pre-treatment, then harsh H2O2 treatment (150 μM)
Protocol: Primary cortical neurons were isolated from a 17 day old rat embryonic brain and seeded on 96-well plate at 50,000 cells/well in regular neurobasal medium for 2-3 week. Twice, half the amount of medium was replaced with fresh neurobasal medium containing no antioxidants. […] Other known neuroprotectants were dissolved in the proper solvent and diluted into final concentration as indicated. […] Each assay was performed in triplicate. After 24 hours, the cultures were evaluated for viability and mitochondrial function using a standard MTS Assay (Promega). The manufacturer's protocols were followed. Experiments were carried out following the procedures described in the Study Design described above. PAN-811 was dissolved in EtOH at 1 mg/ml (˜5 mM), and further diluted in neurobasal medium to final concentration at 0.1 μM, 1 μM, and 10 μM. Lipoic acid was dissolved in EtOH at concentration 240 mM, and further diluted in the neurobasal medium to final concentration at 10 uM, 25 uM, 50 uM and 100 uM. Vitamin E dissolved in EtOH at concentration 100 mM, and further diluted in the neurobasal medium to final concentration at 50 uM, 100 uM, 200 uM and 400 uM. Ginkgo Biloba was dissolved in dH2O at concentration 6 mg/ml, and further diluted in the neurobasal medium to final concentration at 2.5 ug/ml, 5 ug/ml, 25 ug/ml, 250 ug/ml. At the end of the treatment, the medium was replaced with 100 μl fresh pre-warmed neurobasal medium plus B27 (-AO). The plates were returned to the incubator at 37° C. with 5% CO2 for one hour. Subsequently 20 μl MTS reagent was added to each well and plates were incubated at 37° C. with 5% CO2 for an additional two hours. The absorbance at 490 nm for each well was recorded with the BioRad plate reader (Model 550). Wells containing medium alone were used as blanks. Each data point is the average of three separate assay wells. […] Two weeks old primary cultures were used for this set of study. Please see FIG. 1 for results.

[2] = Solubility of PAN-811 in solvents; details: PEG-300/EtOH (70%/30%) versus EtOH
Protocol: PAN-811 was dissolved in either EtOH or DMSO at 1 mg/ml (˜5 mM), in PEG-300/EtOH (70%/30%) at 5 mg/ml (˜25 mM), and further diluted in medium to final concentration at 1 μM, 5 μM, 20 μM and 50 μM. […] Equal volume of solvents (EtOH, DMSO, and PEG-300/EtOH) was added to cells to test the solvent effects on the assay.

[3] = test system: male Sprague-Dawley rats, MCAO
[4] = test system: enriched neuronal cultures (cerebellar tissue); experiment: Neurotoxicity of PAN-811, MTT assay; details: 24 hrs
Protocol: Neuronal culture. Enriched neuronal cultures were prepared from 15-day-old Sprague-Dawley rat embryos. Using aseptic techniques, the rat embryos were removed from the uterus and placed in sterile neuronal culture medium. Using a dissecting microscope, the brain tissue was removed from each embryo, with care taken to discard the meninges and blood vessels. […] Cells were dissociated by trituration of the tissue and were plated at a density of 5×10^5 cells/well onto 48-well culture plates precoated with poly(L-lysine). […]
3.3.1.2 Neurotoxicity of PAN-811. […] Cell viability was determined in the MTT assay.
3.1.3.4 MTT Assay. […] Cell damage was quantitatively assessed using a tetrazolium salt colorimetric assay with 3-(4,5-dimethylthiazol-2-yl)-2,5-diphenyltetrazolium (MTT; Sigma Chemical Co., St. Louis, Mo.). Briefly, the dye was added to each well (final concentration, 1.5 mg/ml), cells were incubated with MTT-acidified isopropanol (0.1 N HCl in isopropanol), and the absorbance intensity (540 nm) of each sample was measured in a 96-well plate reader. Values are expressed relative to vehicle-treated control cells that were maintained on each plate, and the percentage change in cell viability was calculated.

Cortical neurons [5] = details: for protection from mild H/H: pre-treatment 24 h, H/H 6 h
Protocol: (§1) Experiments were performed in a 96-well plate format. Cortical neurons were seeded at a density of 50,000 cells/well on poly-D-lysine coated surface, and cultured in serum-free medium (NB plus B27 supplement) to obtain cultures high-enriched for neurons. Neurons were cultured for over 14 d.i.v. to increase cell susceptibility to excitatory amino acids (Jiang et al., 2001). Six replicate wells were treated as a group to facilitate assay quantitation.
(§2) To mimic the cerebral environments of a stroke, we established 3 in vitro model systems. The extreme H/H model (0.4 mM glucose) is a mimic of the environment in the central core of an infarct; the mild H/H model (1.63 mM glucose) is a mimic of the environment in the penumbra during MCAO; and the hypoxia only model (neurons in normal in vitro glucose concentration—25 mM) is a mimic of the environment in the penumbra after reperfusion since the possible cell death after reperfusion is predominantly a result of the hypoxic effect rather then energy failure.
(§3) Hypoxia/hypoglycemia was obtained by reducing glucose concentration down to 0.4 mM and 1.63 mM for extreme H/H and mild H/H respectively. BSS (116.0 mM NaCl, 5.4 mM KCl, 0.8 mM MgSO4.7H2O, 1.0 mM NaH2PO4, 1.8 mM CaCl2.2H2O, 26.2 mM NaHCO3, and 0.01 mM Glycine) or BSS with 25 mM glucose were de-gassed for 5 minutes prior to use. Culture medium in the plates for hypoxia was replaced with BSS or BSS with glucose. Meanwhile, culture medium in the plates for normoxia was replaced with non de-gassed BSS or BSS with glucose. Cells were committed to hypoxic conditions by transferring the plates into a sealed container (Modular Incubator Chamber-101TM, Billups-Rothenberg, Inc.), applying a vacuum for 20 minutes to remove O2 or other gases from the culture medium, and then refilling the chamber with 5% CO2 and 95% N2 at a pressure of 30 psi for 1 minute. The level of O2 in the chamber was determined to be zero with an O2 indicator (FYRITE Gas Analyzer, Bacharach, Inc.). Culture plates were maintained in the chamber for 6 hours. As an experimental control, duplicate culture plates were maintained under normal culture condition (5% CO2 and 95% ambient air) for the same duration. After a 6-hour treatment plates were removed from the chamber and the medium in both the hypoxic and normoxic cultures was replaced with a termination solution (DMEM supplemented with 1× sodium pyruvate, 10.0 mM HEPES, and 1×N2 supplement) containing 25 mM glucose and cultured in 5% CO2 and 95% ambient air conditions. […] MK801 was utilized as a positive control. Mitochondrial function and cell death were evaluated at 24 or 48 hours post H/H insult with the MTS and LDH analyses (see below).
(§4) The MTS assay is a colorimetric assay that measures the mitochondrial function in metabolically active cells. This measurement indirectly reflects cell viability. […] 20 μl of MTS reagent (Promega) are added to each well of the 96 well assay plates containing the samples in 100 μl of culture medium. The plate is then incubated in a humidified, 5% CO2 atmosphere at 37° C. for 1-2 hours until the color is fully developed. The absorbance at 490 nm was recorded using a Bio-Rad 96 well plate reader.
Lactate dehydrogenase (LDH) assay is based on the reduction of NAD by the action of LDH. The resulting reduced NAD (NADH) is utilized in the stoichiometric conversion of a tetrazolium dye. If cell-free aliquots of medium from cultures given different treatments are assayed, then the amount of LDH activity can be used as an indicator of relative cell death as well as a function of membrane integrity. A 50 μl aliquot of culture medium from a well in tested 96-well plate is transferred into a well in unused plate and supplemented with 25 μl of equally-mixed Substrate, Enzyme and Dye Solutions (Sigma).

Cortical neurons [6] = experiment: Extreme hypoxia/hypoglycemia (H/H) model (0.4 mM glucose)
Protocol: as §1
To mimic the cerebral environments of a stroke, we established 3 in vitro model systems. […]
Hypoxia/hypoglycemia was obtained by reducing glucose concentration down to 0.4 mM and 1.63 mM for extreme H/H and mild H/H respectively. […] The level of O2 in the chamber was determined to be zero with an O2 indicator (FYRITE Gas Analyzer, Bacharach, Inc.). […] Mitochondrial function and cell death were evaluated at 24 or 48 hours post H/H insult with the MTS and LDH analyses (see below).
The MTS assay is a colorimetric assay that measures the mitochondrial function in metabolically active cells. […] The absorbance at 490 nm was recorded using a Bio-Rad 96 well plate reader. […]

Primary cortical neurons [7] = experiment: H2O2-induced oxidative stress (60-70 μM), MTS assay; format: cell-based, rat; details: 1-10 μM, 24 h pre-treatment, then 60-70 μM H2O2, MTS
Protocol: Primary cortical neurons were isolated from a 17 day old rat embryonic brain and seeded on 96-well plate at 50,000 cells/well in regular neurobasal medium for 2-3 week. Twice, half amount of medium was replaced with fresh neurobasal medium containing no antioxidants. […] Each assay was performed in triplicate. […] After 24 hours, the cultures were evaluated for viability and mitochondrial function using a standard MTS Assay (Promega). The manufacturer's protocols were followed. Experiments were carried out following the procedures described in the study design. At the end of the treatment, all treatments and medium were replaced with 100 μl fresh pre-warmed neurobasal medium plus B27 (-AO). The plates were put back into the incubator at 37° C. with 5% CO2 for one hour, then 20 μl MTS reagent was added to each well and plates were incubated at 37° C. with 5% CO2 for an additional two hours. The absorbance at 490 nm for each well was recorded with the BioRad plate reader (Model 550). Wells containing medium alone well was used as blanks. Each data point is the average of three separate assay wells. […] Three weeks old primary cultures were used for this set of study. Please see FIG. 10 for results. Experiments were carried out following the same procedures as experiment 1.

Cortical neurons [8] = details: for protection from neuronal cell death (morphology): 5 μM, hypoxia, FIG. 4
Protocol: as §1, §2, §3
Treatment with drug was continued during and subsequent to a 24-hour period of hypoxia. Cellular morphology and function (MTS and LDH assays) were measured 24 or 48 hours subsequent to the hypoxic insult.
as §4
Lactate dehydrogenase (LDH) assay is based on the reduction of NAD by the action of LDH.

[9] = test system: enriched neuronal cultures (cerebellar tissue); experiment: In vitro models of excitotoxicity (H/H, glutamate, staurosporine, veratridine), MTT assay; details: MTT 24 hrs after insult
Protocol: Neuronal culture. Enriched neuronal cultures were prepared from 15-day-old Sprague-Dawley rat embryos. Using aseptic techniques, the rat embryos were removed from the uterus and placed in sterile neuronal culture medium. Using a dissecting microscope, the brain tissue was removed from each embryo, with care taken to discard the meninges and blood vessels. […] Cells were dissociated by trituration of the tissue and were plated at a density of 5×10^5 cells/well onto 48-well culture plates precoated with poly(L-lysine). Cultures were maintained in a medium containing equal parts of Eagle's basal medium (without glutamine) and Ham's F-12k medium supplemented with 10% heat-inactivated horse serum, 10% fetal bovine serum, 600 μg/ml glucose, 100 μg/ml glutamine, 50 U/ml penicillin, and 50 μg/ml streptomycin. After 48 h, 10 μM cytosine arabinoside was added to inhibit non-neuronal cell division. Cells were used in experiments after 7 days in culture.
Four in vitro models of excitotoxicity were studied. Cells were either exposed to H/H conditions for 3 hrs or treated for 45 min with either glutamate (100 μM), staurosporine (1 μM) or veratridine (10 μM). All cells were cotreated with or without PAN-811 (10 μM) in Locke's solution. At the conclusion of the respective excitotoxic exposures, the condition medium (original) was replaced. H/H was induced by incubating the cells in a humidified airtight chamber saturated with 95% nitrogen, 5% CO2 gas for 3 hrs. in Locke's solution without added glucose.
24 hrs. after the excitotoxic insult cell viability assessments were made. Cell damage was quantitatively assessed using a tetrazolium salt colorimetric assay with 3-(4,5-dimethylthiazol-2-yl)-2,5-diphenyltetrazolium (MTT; Sigma Chemical Co., St. Louis, Mo.). Briefly, the dye was added to each well (final concentration, 1.5 mg/ml), cells were incubated with MTT-acidified isopropanol (0.1 N HCl in isopropanol), and the absorbance intensity (540 nm) of each sample was measured in a 96-well plate reader. Values are expressed relative to vehicle-treated control cells that were maintained on each plate, and the percentage change in cell viability was calculated.

Primary cortical neurons [10] = experiment: ROS generation, CM-H2DCFDA / c-DCF fluorescence; format: cell-based, rat; details: at 10 μM
Protocol: Primary cortical neurons were isolated from a 17 day old rat embryonic brain and seeded in 96-well plates at 50,000 cells/well in regular neurobasal medium for 2-3 weeks. Twice, half the amount of medium was replaced with fresh neurobasal medium without antioxidants. […] Untreated cells loaded with the dye were used as controls to calculate the c-DCF fluorescence change. Each assay was performed in triplicate. Experiments were carried out following the procedures described in the Study Design described above. The c-DCF fluorescence at 485/520 nm (Ex/Em) for each well was recorded with the BMG polar star plate reader. Wells containing cells without dye were used as blanks. Each data point is the average of three separate assay wells. Untreated cells loaded with the dye were used as a control to calculate the c-DCF fluorescence change. Two weeks old primary cultures were used for the study.

Vitamin E [reference compound]
neuroprotective capacity (Primary cortical neurons [1]; known neuroprotectants): minimal neuroprotective capacity

O=C(O)CCCC[C@@H]1CCSS1 (racemic) [Lipoic acid, reference compound]
neuroprotective capacity (Primary cortical neurons [1]; known neuroprotectants): minimal neuroprotective capacity

NC(=S)N/N=C/c1ncccc1N [PAN-811, 3-aminopyridine-2-carboxaldehyde thiosemicarbazone]
solubility [2]: better solubility in PEG-300/EtOH comparing to EtOH alone
range of infarct volume ([3]; 1 mg/kg IV 10 minutes prior to 2 h MCAO, 24 hours after surgery): 42.36-387.08 mm^3
mean infarct volume ([3]; 1 mg/kg IV 10 minutes prior to 2 h MCAO, 24 hours after surgery, n 14): 225.85 mm^3
% protection (reduction in average infarct volume vs vehicle) ([3]; 1 mg/kg IV 10 minutes prior to MCAO, p<0.05): 23%
rats that died (of 7 deaths from severe stroke or SAH) ([3]; 1 mg/kg IV, 6 of the 7 deaths were vehicle rats): 1 rat
tolerability / toxicity ([3]; rat, in vivo): well tolerated and relatively non-toxic
neurotoxicity ([4]; concentrations up to 100 μM): only slight toxicity
maximal toxicity ([4]; highest concentration tested (100 μM)): 7.8%
protection from mild H/H (Cortical neurons [5]; 2 μM, Apr. 17, 2003, culture age 13 days, 48 h post H/H): 100% protected
protection from mild H/H (Cortical neurons [5]; 2 μM, Jul. 9, 2003, culture age 13 days, 20 h post H/H): 100% protected
protection from mild H/H (Cortical neurons [5]; 2 μM, May 2, 2003, culture age 22 days, 24 h post H/H): 100% protected
protection from mild H/H (Cortical neurons [5]; 2 μM, May 8, 2003, culture age 42 days, 24 h post H/H): 100% protected
protection from H/H-induced mitochondria dysfunction and neuronal cell death (Cortical neurons [5]; 5 μM, 24 hours before and during 6-hour H/H, 15-day culture, MTS and LDH 17 hours post): completely protected
protection from mild H/H (Cortical neurons [5]; 5 μM, Jul. 25, 2003, culture age 15 days, 24 h post H/H, test range started from 5 μM): 100% protected
protection from mild H/H (Cortical neurons [5]; 10 μM, Jul. 13, 2003, culture age 15 days, 24 h post H/H, test range started from 5 μM): 100% protected
protection from mild H/H induced neurotoxicity (Cortical neurons [5]; at 2 μM): completely protected
protection from neuronal cell death (LDH) (Cortical neurons [5]; treatment 24 h before 6-hour H/H only, LDH 48 hours after H/H): marginally
block of extreme H/H-induced neuronal cell death (Cortical neurons [6]; at 100 μM): only partially blocked
protection from neuronal cell death (Cortical neurons [6]; at ≦50 μM, extreme H/H (data not shown)): did not protect neuronal cell death
neuroprotective capacity (Primary cortical neurons [7]): good neuroprotective capacity
neuroprotective capacity (Primary cortical neurons [1]; PAN-811 at 1-10 μM): good neuroprotective capacity; also recorded: significant neuroprotection
block of neuronal cell death and mitochondrial dysfunction (Cortical neurons [8]; 2 μM, 24 hours prior to, during and subsequent to 24-hour hypoxia): completely blocking neuronal cell death and mitochondrial dysfunction
block of hypoxia-induced cell death (Cortical neurons [8]; 2 μM, 48 h prior to, during 24-hour hypoxia and 48 h subsequent): completely blocked the cell death
protection from neuronal cell death (morphology) (Cortical neurons [8]): efficient protection from neuronal cell death
protection from sole hypoxia-induced neurotoxicity (Cortical neurons [8]; at 2 μM): completely protected
protection from damage by staurosporine ([9]; 10 μM PAN-811, 1 μM staurosporine 45 min): ~47%
protection from damage by veratridine ([9]; 10 μM PAN-811, 10 μM veratridine 45 min): ~39%
protection from damage by glutamate ([9]; 10 μM PAN-811, 100 μM glutamate 45 min): ~75%
protection from damage by hypoxia/hypoglycemia ([9]; 10 μM PAN-811, 3 hour H/H): 92%
reduction of the basal level of ROS generation (Primary cortical neurons [10]): ~50%
reduction of H2O2-induced ROS generation (Primary cortical neurons [10]; 1 h, then 300 μM H2O2 for 2 hours): ~30%

C[C@]12N[C@H](Cc3ccccc31)c1ccccc12 [MK801, reference compound]
protection from neuronal cell death (morphology) (Cortical neurons [8]): efficient protection from neuronal cell death
